These results are taken from patent US20250195513A1, “DEGRADATION OF IRAK4 BY CONJUGATION OF IRAK4 INHIBITORS WITH E3 LIGASE LIGAND AND METHODS OF USE” (BeiGene, Ltd., priority 2022, published 2025).

The target of this assay is T1, IRAK4 (Homo sapiens, UniProt Q9NWZ3).
T1 construct: endogenous in cells; host or cells: Karpas299
T1 sequence (Q9NWZ3 1-460): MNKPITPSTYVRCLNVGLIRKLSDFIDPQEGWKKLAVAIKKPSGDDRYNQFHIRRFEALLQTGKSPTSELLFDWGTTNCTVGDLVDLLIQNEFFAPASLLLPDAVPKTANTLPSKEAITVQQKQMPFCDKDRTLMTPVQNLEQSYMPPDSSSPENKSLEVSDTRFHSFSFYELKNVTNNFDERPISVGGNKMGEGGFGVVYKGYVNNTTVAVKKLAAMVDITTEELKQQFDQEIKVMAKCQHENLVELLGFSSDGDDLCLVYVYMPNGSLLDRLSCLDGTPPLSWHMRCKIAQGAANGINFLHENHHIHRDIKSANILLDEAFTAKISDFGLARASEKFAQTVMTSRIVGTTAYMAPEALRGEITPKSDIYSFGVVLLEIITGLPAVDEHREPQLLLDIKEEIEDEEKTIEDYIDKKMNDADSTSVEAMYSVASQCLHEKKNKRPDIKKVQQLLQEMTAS
The assay is described as follows: IRAK4 Degradation Assay (Karpas299, HTRF/TR-FRET). The assay is classed as cell-based. The method in brief: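 Compound potency as DC50 (IC50) came from four-parameter fits of percent IRAK4 degradation. IRAK4 was measured by HTRF (665/620 nm) in lysates of Karpas299 cells seeded at 0.2 million per well. Cells had been treated with compound dilutions for 5 or 24 h.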
(In TR-FRET formats the signal depends on donor and acceptor labels being close together.)

The mark [1] stands for this setting: Karpas-299 cells, 5 h treatment, maximum percentage of degradation, read-out: IRAK4 in Karpas-299 (5 h) Dmax (%).
[2] abbreviates: Karpas-299 cells, 5 h treatment, read-out: IRAK4 in Karpas-299 (5 h) DC50.
[3] abbreviates: Karpas-299 cells, 24 h treatment, maximum percentage of degradation, read-out: IRAK4 in Karpas-299 (24 h) Dmax (%).
[4] abbreviates: Karpas-299 cells, 24 h treatment, read-out: IRAK4 in Karpas-299 (24 h) DC50.

Where two headings read alike, the source gives them in different places.

The term Dmax denotes the largest share of the target that was removed. For orientation: DC50 means the concentration at which degradation of the target reaches its halfway point. In the case of `CC(C)(O)c1cc2nc(C3CCN(C4CCN(C(=O)[C@H]5CCN(c6ccc(N7CCC(=O)NC7=O)cc6)C5)CC4)CC3)cn2cc1NC(=O)c1cccc(C(F)(F)F)n1` [Example 128, (S)—N-(2-(1′-(1-(4-(2,4-dioxotetrahydropyrimidin-1(2H)-yl)phenyl)pyrrolidine-3-carbonyl)-[1,4′-bipiperidin]-4-yl)-7-(2-hydroxypropan-2-yl)imidazo[1,2-a]pyridin-6-yl)-6-(trifluoromethyl)picolinamide], the Dmax runs as follows: under setting [1], 90%; under setting [3], 100%. In addition, the DC50 by setting is: under setting [2], 41 nM; under setting [4], 7.2 nM.

`O=C1CC[C@H](c2c(F)cc(N3CC[C@@H](C(=O)N4CCN([C@H]5CC[C@H](n6cc7cc(NC(=O)c8cccc(C(F)(F)F)n8)c(C(=O)NC8CC8)cc7n6)CC5)CC4)C3)cc2F)C(=O)N1` [Example 129, N-cyclopropyl-2-((1R,4r)-4-(4-((R)-1-(4-((R)-2,6-dioxopiperidin-3-yl)-3,5-difluorophenyl)pyrrolidine-3-carbonyl)piperazin-1-yl)cyclohexyl)-5-(6-(trifluoromethyl)picolinamido)-2H-indazole-6-carboxamide]: the maximal degradation (Dmax) under setting [3] was found to be 99%. For the same compound, under setting [4], the DC50 was 1.9 nM.

For `O=C1CC[C@H](c2c(F)cc(N3CC(C(=O)N4CCN([C@H]5CC[C@H](n6cc7cc(NC(=O)c8cccc(C(F)(F)F)n8)c(C(=O)NC8CC8)cc7n6)CC5)CC4)C3)cc2F)C(=O)N1` [Example 130], the Dmax under setting [3] was 98%. The 50% degradation concentration (DC50) under setting [4] was 0.5 nM.

Regarding `CC(C)(O)c1cc2nn(C34CCC(N5CCN(C(=O)C6CN(c7cc(F)c([C@H]8CCC(=O)NC8=O)c(F)c7)C6)CC5)(CC3)CC4)cc2cc1NC(=O)c1ccc2cc(C#N)cnn12` [Example 149, (R)-3-cyano-N-(2-(4-(4-(1-(4-(2,6-dioxopiperidin-3-yl)-3,5-difluorophenyl)azetidine-3-carbonyl)piperazin-1-yl)bicyclo[2.2.2]octan-1-yl)-6-(2-hydroxypropan-2-yl)-2H-indazol-5-yl)pyrrolo[1,2-b]pyridazine-7-carboxamide], the Dmax under setting [3] was 97%. The DC50 under setting [4] is 0.3 nM.

On to `CC(C)(O)c1cc2nn(C3CCN(C4CCN(C(=O)C5CN(c6cc(F)c([C@H]7CCC(=O)NC7=O)c(F)c6)C5)CC4)CC3)cc2cc1NC(=O)c1cccc(C(F)(F)F)n1` [Example 160, (R)—N-(2-(1′-(1-(4-(2,6-dioxopiperidin-3-yl)-3,5-difluorophenyl)azetidine-3-carbonyl)-[1,4′-bipiperidin]-4-yl)-6-(2-hydroxypropan-2-yl)-2H-indazol-5-yl)-6-(trifluoromethyl)picolinamide], for which the Dmax runs as follows: under setting [1], 90%; under setting [3], 99%. The DC50 by setting is: under setting [2], 4 nM; under setting [4], 0.4 nM.

For `CC(C)(O)c1cc2nn(C3CCN(C4CCN(C(=O)[C@@H]5CCN(c6ccc(N7CCC(=O)NC7=O)cc6)C5)CC4)CC3)cc2cc1NC(=O)c1cccc(C(F)(F)F)n1` [Example 162, (R)—N-(2-(1′-(1-(4-(2,4-dioxotetrahydropyrimidin-1(2H)-yl)phenyl)pyrrolidine-3-carbonyl)-[1,4′-bipiperidin]-4-yl)-6-(2-hydroxypropan-2-yl)-2H-indazol-5-yl)-6-(trifluoromethyl)picolinamide], under setting [3], the Dmax was found to be 96%. Moreover, the half-maximal degradation concentration (DC50) under setting [4] turned out to be 5.7 nM.

As for `CC(C)(O)c1cc2nn(C3CCN(C4CCN(C(=O)[C@H]5CCN(c6ccc(N7CCC(=O)NC7=O)cc6)C5)CC4)CC3)cc2cc1NC(=O)c1cccc(C(F)(F)F)n1` [Example 163, (S)—N-(2-(1′-(1-(4-(2,4-dioxotetrahydropyrimidin-1(2H)-yl)phenyl)pyrrolidine-3-carbonyl)-[1,4′-bipiperidin]-4-yl)-6-(2-hydroxypropan-2-yl)-2H-indazol-5-yl)-6-(trifluoromethyl)picolinamide], the Dmax under setting [3] was determined as 95%. Moreover, the DC50 under setting [4] stood at 3.8 nM.

On to `COc1cc2nn([C@H]3CC[C@H](N4CCN(C(=O)[C@@H]5CCN(c6ccc(N7CCC(=O)NC7=O)cc6)C5)CC4)CC3)cc2cc1NC(=O)c1cccc(C(F)(F)F)n1` [Example 164, N-(2-((1R,4r)-4-(4-((R)-1-(4-(2,4-dioxotetrahydropyrimidin-1(2H)-yl)phenyl)pyrrolidine-3-carbonyl)piperazin-1-yl)cyclohexyl)-6-methoxy-2H-indazol-5-yl)-6-(trifluoromethyl)picolinamide], for which the half-maximal degradation concentration (DC50) worked out at 2 nM (Degradation (Karpas-299), comparison table, Linker Type B, read-out: Compound (Linker Type B) DC50) and 2 nM under setting [4]. For the same compound, the Dmax is, setting by setting: (Degradation (Karpas-299), comparison table, Linker Type B, read-out: Compound (Linker Type B) Dmax (%)) 97%; under setting [3], 97%.

As for `NC(=O)c1nn(-c2ccc(N3CCN(C(=O)[C@@H]4CCN(c5cc(F)c([C@H]6CCC(=O)NC6=O)c(F)c5)C4)CC3)nc2)cc1NC(=O)c1coc(-c2ccnc(NCC(F)(F)F)c2)n1` [Example 166, N-(3-carbamoyl-1-(6-(4-((R)-1-(4-((R)-2,6-dioxopiperidin-3-yl)-3,5-difluorophenyl)pyrrolidine-3-carbonyl)piperazin-1-yl)pyridin-3-yl)-1H-pyrazol-4-yl)-2-(2-((2,2,2-trifluoroethyl)amino)pyridin-4-yl)oxazole-4-carboxamide], the Dmax under setting [3] was 96%. Moreover, the DC50 under setting [4] amounted to 2.6 nM.

`O=C1CC[C@H](c2c(F)cc(N3CC(C(=O)N4CCN([C@H]5CC[C@H](n6cc7cc(NC(=O)c8cccc(C(F)(F)F)n8)c(C(=O)N[C@H]8C[C@H](CO)C8)cc7n6)CC5)CC4)C3)cc2F)C(=O)N1` [Example 167, 2-((1r,4R)-4-(4-(1-(4-((R)-2,6-dioxopiperidin-3-yl)-3,5-difluorophenyl)azetidine-3-carbonyl)piperazin-1-yl)cyclohexyl)-N-((1r,3R)-3-(hydroxymethyl)cyclobutyl)-5-(6-(trifluoromethyl)picolinamido)-2H-indazole-6-carboxamide]: the Dmax under setting [1] was determined as 94% and the Dmax under setting [3] is 99%. For the same compound, the 50% degradation concentration (DC50) is 5.3 nM under setting [2] and 0.8 nM under setting [4].

With `O=C1CC[C@H](c2c(F)cc(N3CC[C@@H](C(=O)N4CCN([C@H]5CC[C@H](n6cc7cc(NC(=O)c8cccc(C(F)(F)F)n8)c(C(=O)N[C@H]8C[C@H](CO)C8)cc7n6)CC5)CC4)C3)cc2F)C(=O)N1` [Example 168, 2-((1R,4R)-4-(4-((R)-1-(4-((R)-2,6-dioxopiperidin-3-yl)-3,5-difluorophenyl)pyrrolidine-3-carbonyl)piperazin-1-yl)cyclohexyl)-N-((1r,3R)-3-(hydroxymethyl)cyclobutyl)-5-(6-(trifluoromethyl)picolinamido)-2H-indazole-6-carboxamide], the Dmax under setting [1] stood at 87% and the Dmax under setting [3] amounted to 100%. In addition, the half-maximal degradation concentration (DC50) runs as follows: under setting [2], 5.2 nM; under setting [4], 1.3 nM.

As for `[2H]C([2H])([2H])Oc1cc2nn([C@H]3CC[C@H](N4CCN(C(=O)[C@@H]5CCN(c6cc(F)c([C@H]7CCC(=O)NC7=O)c(F)c6)C5)CC4)CC3)cc2cc1NC(=O)c1cccc(C(F)(F)F)n1` [Example 169, N-(2-((1R,4r)-4-(4-((R)-1-(4-((R)-2,6-dioxopiperidin-3-yl)-3,5-difluorophenyl)pyrrolidine-3-carbonyl)piperazin-1-yl)cyclohexyl)-6-(methoxy-d3)-2H-indazol-5-yl)-6-(trifluoromethyl)picolinamide], the Dmax is 95% under setting [1] and 99% under setting [3]. Moreover, the DC50 under setting [2] was found to be 17 nM and the DC50 under setting [4] was 4.3 nM.

On to `CCC(C)c1cc(-c2nc(C(=O)Nc3cn([C@H]4CC[C@H](N5CCN(C(=O)[C@@H]6CCN(c7cc(F)c([C@H]8CCC(=O)NC8=O)c(F)c7)C6)CC5)CC4)nc3C(F)F)co2)ccn1` (stereo partly drawn) [Example 170, 2-(2-(sec-butyl)pyridin-4-yl)-N-(3-(difluoromethyl)-1-((1R,4r)-4-(4-((R)-1-(4-((R)-2,6-dioxopiperidin-3-yl)-3,5-difluorophenyl)pyrrolidine-3-carbonyl)piperazin-1-yl)cyclohexyl)-1H-pyrazol-4-yl)oxazole-4-carboxamide], for which, under setting [3], the Dmax was determined as 96%. Moreover, the 50% degradation concentration (DC50) under setting [4] was found to be 6.8 nM.

Take `COc1cc2nn([C@H]3CC[C@H](CN4CCN(C(=O)[C@@H]5CCN(c6cc(F)c(N7CCC(=O)NC7=O)c(F)c6)C5)CC4)CC3)cc2cc1NC(=O)c1cccn(C2CC2)c1=O` [Example 171, 1-cyclopropyl-N-(2-((1R,4r)-4-((4-((R)-1-(4-(2,4-dioxotetrahydropyrimidin-1(2H)-yl)-3,5-difluorophenyl)pyrrolidine-3-carbonyl)piperazin-1-yl)methyl)cyclohexyl)-6-methoxy-2H-indazol-5-yl)-2-oxo-1,2-dihydropyridine-3-carboxamide]: the maximal degradation (Dmax) under setting [3] came out at 95%. In addition, under setting [4], the DC50 came out at 10 nM.
